Assay results as given in US4668514A, “Penicillin derivatives” (Taiho Pharmaceutical Company Limited, priority 1983, dated 1987).

The compounds below were run against penicillinase (β-lactamase) derived from Bacillus sp. (assay: β-lactamase inhibitory activity measured by microiodometry using penicillin G as substrate). Conditions: read-out: 50% Inhibitory Concentration.
Format: biochemical
Procedure: Test for β-lactamase inhibitory activity
The inhibitory activity against penicillinase (β-lactamase) derived from Bacillus sp. was measured by microiodometry Tanpakushitsu Kakusan Koso (Protein Nucleic Acid Enzyme), vol. 23, No. 5, pp 391 to 400 (1978) using penicillin G as a substrate.

Going from `Cc1nnn(C[C@@]2(C)[C@H](C(=O)O)N3C(=O)C[C@H]3S2(=O)=O)c1C` [Compound 2, sodium 2β-(4,5-dimethyl-1,2,3-triazol-1-yl)methyl-2α-methylpenam-3α-carboxylate 1,1-dioxide] to `Cc1cnnn1C[C@@]1(C)[C@H](C(=O)O)N2C(=O)C[C@H]2S1(=O)=O` [Compound 11, sodium 2β-(5-methyl-1,2,3-triazol-1-yl)methyl-2α-methylpenam-3α-carboxylate 1,1-dioxide], the IC50 rises from 80 nM to 240 nM (3-fold). The first is the more potent here.

Compared with `CCCCc1nnn(C[C@@]2(C)[C@H](C(=O)O)N3C(=O)C[C@H]3S2(=O)=O)c1CCCC` [Compound 5, sodium 2β-(4,5-di-n-butyl-1,2,3-triazol-1-yl)methyl-2α-methylpenam-3α-carboxylate 1,1-dioxide], `CCCCc1cnnn1C[C@@]1(C)[C@H](C(=O)O)N2C(=O)C[C@H]2S1(=O)=O` [Compound 9, sodium 2β-(5-n-butyl-1,2,3-triazol-1-yl)methyl-2α-methylpenam-3α-carboxylate 1,1-dioxide] is 4.6-fold lower in IC50: 3000 nM for the first, 650 nM for the second.

Compared with `CCCCc1cn(C[C@@]2(C)[C@H](C(=O)O)N3C(=O)C[C@H]3S2(=O)=O)nn1` [Compound 8, sodium 2β-(4-n-butyl-1,2,3-triazol-1-yl)methyl-2α-methylpenam-3α-carboxylate 1,1-dioxide], `C[C@]1(Cn2cc(N)nn2)[C@H](C(=O)O)N2C(=O)C[C@H]2S1(=O)=O` [Compound 55, 2β-(4-amino-1,2,3-triazol-1-yl)methyl-2α-methylpenam-3α-carboxylic acid 1,1-dioxide] is 3-fold higher in IC50: 230 nM for the first, 700 nM for the second.

First: C[C@]1(Cn2cc(-c3ccccc3)nn2)[C@H](C(=O)O)N2C(=O)C[C@H]2S1(=O)=O [Compound 14, sodium 2β-(4-phenyl-1,2,3-triazol-1-yl)methyl-2α-methylpenam-3α-carboxylate 1,1-dioxide]
Second: C[C@]1(Cn2nncc2-c2ccccc2)[C@H](C(=O)O)N2C(=O)C[C@H]2S1(=O)=O [Compound 15, sodium 2β-(5-phenyl-1,2,3-triazol-1-yl)methyl-2α-methylpenam-3α-carboxylate 1,1-dioxide]
The IC50 of the first is 7-fold lower: 40 nM for the first, 280 nM for the second.

`C[C@]1(Cn2nnc(-c3ccccc3)c2-c2ccccc2)[C@H](C(=O)O)N2C(=O)C[C@H]2S1(=O)=O` [Compound 17, 2β-(4,5-diphenyl-1,2,3-triazol-1-yl)methyl-2α-methylpenam-3α-carboxylic acid 1,1-dioxide] and `CCOC(=O)c1nnn(C[C@@]2(C)[C@H](C(=O)O)N3C(=O)C[C@H]3S2(=O)=O)c1-c1ccccc1` [Compound 44, sodium 2β-(4-ethoxycarbonyl-5-phenyl-1,2,3-triazol-1-yl)methyl-2α-methylpenam-3α-carboxylate 1,1-dioxide] are within 1.5-fold of each other in IC50: 270 nM for the first, 400 nM for the second.

Going from `C[C@]1(Cn2cc(C(F)(F)F)nn2)[C@H](C(=O)O)N2C(=O)C[C@H]2S1(=O)=O` [Compound 19, sodium 2α-methylpenam-2β-(4-trifluoromethyl-1,2,3-triazol-1-yl)methyl-3α-carboxylate 1,1-dioxide] to `CCNC(=O)c1cn(C[C@@]2(C)[C@H](C(=O)O)N3C(=O)C[C@H]3S2(=O)=O)nn1` [Compound 29, sodium 2β-(4-ethylcarbamoyl-1,2,3-triazol-1-yl)methyl-2α-methylpenam-3α-carboxylate 1,1-dioxide], the IC50 falls from 240 nM to 20 nM (12-fold).

`COCc1cnnn1C[C@@]1(C)[C@H](C(=O)O)N2C(=O)C[C@H]2S1(=O)=O` [Compound 22, sodium 2β-(5-methoxymethyl-1,2,3-triazol-1-yl)methyl-2α-methylpenam-3α-carboxylate 1,1-dioxide] and `C[C@]1(Cn2nnc(CO)c2CO)[C@H](C(=O)O)N2C(=O)C[C@H]2S1(=O)=O` [Compound 50, sodium 2β-(4,5-dihydroxymethyl-1,2,3-triazol-1-yl)methyl-2α-methylpenam-3α-carboxylate 1,1-dioxide] are within 1.5-fold of each other in IC50: 1800 nM for the first, 2000 nM for the second.

First: C[C@]1(Cn2nnc(C(N)=O)c2C(N)=O)[C@H](C(=O)O)N2C(=O)C[C@H]2S1(=O)=O [Compound 31, sodium 2β-(4,5-dicarbamoyl-1,2,3-triazol-1-yl)methyl-2α-methylpenam-3α-carboxylate 1,1-dioxide]
Second: CC(=O)OCc1nnn(C[C@@]2(C)[C@H](C(=O)O)N3C(=O)C[C@H]3S2(=O)=O)c1COC(C)=O [Compound 47, sodium-2β-(4,5-diacetoxymethyl-1,2,3-triazol-1-yl)methyl-2α-methylpenam-3α-carboxylate 1,1-dioxide]
The IC50 of the first is 19-fold lower: 130 nM for the first, 2500 nM for the second.

`CC(=O)c1cn(C[C@@]2(C)[C@H](C(=O)OCc3ccc([N+](=O)[O-])cc3)N3C(=O)C[C@H]3S2(=O)=O)nn1` [Compound 32, p-nitrobenzyl 2β-(4-acetyl-1,2,3-triazol-1-yl)methyl-2α-methylpenam-3α-carboxylate 1,1-dioxide] and `CCOC(=O)c1c(-c2ccccc2)nnn1C[C@@]1(C)[C@H](C(=O)O)N2C(=O)C[C@H]2S1(=O)=O` [Compound 45, sodium 2β-(5-ethoxycarbonyl-4-phenyl-1,2,3-triazol-1-yl)methyl-2α-methylpenam-3α-carboxylate 1,1-dioxide] are within 1.5-fold of each other in IC50: 120 nM for the first, 100 nM for the second.

For `C[C@]1(Cn2nnc(COCc3ccccc3)c2COCc2ccccc2)[C@H](C(=O)O)N2C(=O)C[C@H]2S1(=O)=O` [Compound 49, 2β-(4,5-dibenzyloxymethyl-1,2,3-triazol-1-yl)methyl-2α-methylpenam-3α-carboxylic acid 1,1-dioxide], the IC50 was 1500 nM.
